Measured values from patent publication US5563163A, “2-saccharinylmethyl heterocyclic carboxylates useful as proteolytic enzyme inhibitors and compositions and method of use thereof” (Sterling Winthrop, Inc., priority 1995, dated 1996).
Counter-ions that a name gives are not always drawn.

Target: T1, human leukocyte elastase (HLE) (Homo sapiens, UniProt P08246)
T1 sequence (P08246 30-267): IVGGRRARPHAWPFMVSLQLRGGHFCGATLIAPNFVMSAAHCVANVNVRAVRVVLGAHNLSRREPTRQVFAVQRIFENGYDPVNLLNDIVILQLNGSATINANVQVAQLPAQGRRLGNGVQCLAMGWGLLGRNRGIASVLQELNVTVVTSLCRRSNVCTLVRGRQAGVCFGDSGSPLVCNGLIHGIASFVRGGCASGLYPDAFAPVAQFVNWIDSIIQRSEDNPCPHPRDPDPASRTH
Experiment: Inhibition of human leukocyte elastase (HLE): rate of inactivation kon and inhibition constant Ki* (= koff/kon)
Format: biochemical
Conditions: for kinact/KI: "Kon × 10^-3": value is Kon multiplied by 10^-3; for Ki: Ki* calculated as koff/kon, not a truly reversible Ki
Experimental: Measurement of the inhibition constant, Ki, of a HLE-inhibitor complex has been described for "truly reversible inhibition constants" usually concerning competitive inhibitors. [Cha, Biochem. Pharmacol., 24, 2177-2185 (1975)]. […] Thus, instead of measuring a Ki, a Ki * is calculated which is defined as the ratio of the koff /kon, the rate of reactivation of the enzyme to the rate of inactivation of the enzyme. The values of koff and kon are measured and Ki * is then calculated. The rate of inactivation, kon, of enzymatic activity was determined for the compounds tested by measuring the enzyme activity of an aliquot of the respective enzyme as a function of time after addition of the test compound. […] The rate of inactivation is then equal to [formula] where [I] is the concentration of the inhibiting compound. The reactivation constant, koff, is similarly determined, and the inhibition constant, Ki *, is then calculated as Ki *=koff /kon The values obtained for kon and Ki * for specific substituted saccharin derivatives are shown in TABLE 3, the compounds being identified by the Example numbers above where their preparations are described.

| SMILES | kinact/KI | Ki |
| --- | --- | --- |
| O=C(OCN1C(=O)c2ccccc2S1(=O)=O)c1ccncc1 [Example 1, 2-saccharinylmethyl pyridine-4-carboxylate] | 1200 M⁻¹ s⁻¹ | 40 nM |
| CC(C)c1cccc2c1C(=O)N(COC(=O)c1c(Cl)cncc1Cl)S2(=O)=O [Example 4, 4-isopropyl-2-saccharinylmethyl 3,5-dichloro-pyridine-4-carboxylate hydrochloride] | 2.3e+06 M⁻¹ s⁻¹ |  |
| COc1cc(C(C)C)c2c(c1)S(=O)(=O)N(COC(=O)c1sccc1C)C2=O [Example 7, 4-isopropyl-6-methoxy-2-saccharinylmethyl 3-methylthiophene-2-carboxylate] | 625000 M⁻¹ s⁻¹ | 0.016 nM |
| O=C(OCN1C(=O)c2ccccc2S1(=O)=O)c1c(Cl)cncc1Cl [Example 2, 2-saccharinylmethyl 3,5-dichloropyridine-4-carboxylate] | 11000 M⁻¹ s⁻¹ | 10 nM |
| COc1cc(C(C)C)c2c(c1)S(=O)(=O)N(COC(=O)c1ccsc1)C2=O [Example 6, 4-isopropyl-6-methoxy-2-saccharinylmethyl thiophene-3-carboxylate] | 47600 M⁻¹ s⁻¹ | 0.21 nM |
| COc1cc(C(C)C)c2c(c1)S(=O)(=O)N(COC(=O)c1c(Cl)cnc(OCCN(C)C)c1Cl)C2=O [Example 5, 4-isopropyl-6-methoxy-2-saccharinylmethyl 3,5-dichloro-2-[2-(dimethylamino)ethoxy]pyridine-4-carboxylate] | 455000 M⁻¹ s⁻¹ | 0.022 nM |
| CC(C)c1cccc2c1C(=O)N(COC(=O)c1c(Cl)cnc(OCCN3CCOCC3)c1Cl)S2(=O)=O [Example 3, 4-(isopropyl]-2-saccharinylmethyl 3.5-dichloro-2-[2-(4-morpholinyl)ethoxy]pyridine-4-carboxylate hydrochloride] | 1.5e+06 M⁻¹ s⁻¹ | 0.015 nM |
| COc1cc(C(C)C)c2c(c1)S(=O)(=O)N(COC(=O)c1cccs1)C2=O [Example 8, 4-isopropyl-6-methoxy-2-saccharinylmethyl thiophene-2-carboxylate] | 100000 M⁻¹ s⁻¹ | 0.1 nM |

Second part, the compound after the results:

| kinact/KI | Ki | SMILES |
| --- | --- | --- |
| 9000 M⁻¹ s⁻¹ | 1.1 nM | COc1cc(C(C)C)c2c(c1)S(=O)(=O)N(COC(=O)c1c(C)nn(-c3ccccc3)c1C)C2=O [Example 13, 4-isopropyl.-6-methoxy-2-saccharinylmethyl 3,5-dimethyl-1-phenylpyrazole-4-carboxylate] |
| 50000 M⁻¹ s⁻¹ | 0.2 nM | COc1cc(C(C)C)c2c(c1)S(=O)(=O)N(COC(=O)C1CCC(=O)N1)C2=O (centres unmarked) [Example 11, 4-isopropyl-6-methoxy-2-saccharinylmethyl-2-pyrrolidine-5-carboxylate] |
| 63000 M⁻¹ s⁻¹ | 0.16 nM | COc1cc(C(C)C)c2c(c1)S(=O)(=O)N(COC(=O)c1cc(C)no1)C2=O [Example 10, 4-isopropyl-6-methoxy-2-saccharinylmethyl 3-methylisoxazole-5-carboxylate] |
| 28000 M⁻¹ s⁻¹ | 0.36 nM | COc1cc(C(C)C)c2c(c1)S(=O)(=O)N(COC(=O)c1c(C)noc1C)C2=O [Example 12, 4-isopropyl-6-methoxy-2-saccharinylmethyl 3,5-dimethylisoxazole-4-carboxylate] |
| 6000 M⁻¹ s⁻¹ | 1.5 nM | COc1cc(C(C)C)c2c(c1)S(=O)(=O)N(COC(=O)c1c(C)c3cc(Cl)ccc3n1C)C2=O [Example 15, 4-isopropyl-6-methoxy-2-saccharinylmethyl 1,3-dimethyl-5-chloro-indole-2-carboxylate] |
| 500000 M⁻¹ s⁻¹ | 0.02 nM | COc1cc(C(C)C)c2c(c1)S(=O)(=O)N(COC(=O)c1c(C)ccnc1C)C2=O [Example 14, 4-isopropyl-6-methoxy-2-saccharinylmethyl 2,4-dimethylpyridine-3 carboxylate] |
| 131000 M⁻¹ s⁻¹ | 0.076 nM | COc1cc(C(C)C)c2c(c1)S(=O)(=O)N(COC(=O)c1sccc1Cl)C2=O [Example 9, 4-isopropyl-6-methoxy-2-saccharinylmethyl 3-chlorothiophene-2-carboxylate] |
